Reference: US11147792B2, “Inhibitors of microbially induced amyloid” (Axial Therapeutics, Inc, priority 2017, dated 2021)
Where two headings read alike, the source gives them in different places.

Columns and labels:
Type in all cases: biochemical
[1] = molecular target: T1, α-synuclein seeded by E. coli CsgA (Homo sapiens, UniProt P37840); test: In vitro Thioflavin T assay of CsgA-seeded α-synuclein aggregation
T1 construct: made in house; host or cells: E. coli NEB 3016 slyD::kan (CsgA, pET11d); E. coli (α-synuclein)
Protocol: In Vitro Thioflavin T Assay to Determine the Effects of Compounds on CsgA-Seeded α-Synuclein Aggregation.
To induce over-expression of CsgA, 0.5 mM IPTG was added to cultures with an optical density at 600 nm (OD600) of 0.8-1, and induced cells were cultured at 37° C. for 1 hour prior to harvest via centrifugation. […] Buffers with imidazole were freshly prepared prior to the protein purification. Purified CsgA was passed through a 30 kDa molecular weight cut-off filter and through a desalting column. All steps of the CsgA purification in the absence of guanidine hydrochloride were conducted in rapid succession with as little delay as possible. […] The ammonium sulfate pellet was washed with an equal volume of 100 mM ammonium acetate in ethanol, pelleted via centrifugation, washed twice with ethanol, dried overnight, resuspended in 10 mM Tris pH 7.4, and passed through a 50 kDa cut-off column. The assay was conducted in 96-well black microplates with a single glass 2 mm bead per well, 40 μM ThioflavinT, 1% DMSO, 2 μM CsgA, 50 μM α-synuclein, 100 mM sodium chloride, 9.3 mM potassium phosphate pH 7.3, and compounds at 50 μM. […] The effect of compounds on CsgA-seeded α-synuclein aggregation in the assay was determined with data from 40 hours, following the plateau of the fluorescent signal in the untreated (no compound) control wells containing CsgA and α-synuclein. Fluorescence values for each compound with CsgA and α-synuclein were first adjusted by subtracting the average fluorescence of the compound in the absence of CsgA and α-synuclein.

[2] = molecular target: T2, E. coli CsgA (Escherichia coli, UniProt P28307); test: In vitro ThioflavinT assay of CsgA aggregation
T2 construct: made in house; host or cells: E. coli NEB 3016 slyD::kan, pET11d
Protocol: In Vitro ThioflavinT Assay to Determine Effects of Compounds on CsgA Aggregation.
To assess the effects of compounds on aggregation of E. coli CsgA, a cell-free assay was performed using purified CsgA and Thioflavin T. In the assay, histidine-tagged CsgA was over-expressed in E. coli NEB 3016 slyD::kan cells harboring a pET11d vector containing csgA with the sequence for 6 histidine residues added to the C-terminus and without the Sec signal (amino acid 1-22) sequence. To induce over-expression of CsgA, 0.5 mM isopropyl β-D-1-thiogalactopyranoside (“IPTG”) was added to cultures with an optical density at 600 nm (OD600) of 0.8-1, and induced cells were cultured at 37° C. for 1 hour prior to harvest via centrifugation. Cells were lysed under denaturing conditions with 8 M guanidine hydrochloride in 50 mM potassium phosphate buffer pH 7.3, and CsgA was purified via immobilized-metal affinity chromatography by batch purification with Nickel-NTA agarose and a combination of low pressure and gravity flow through a disposable polypropylene column, including washes under low pressure applied manually via application of a syringe plunger to the column with 50 mM potassium phosphate buffer pH 7.3 followed by 12.5 mM imidazole in 50 mM potassium phosphate buffer pH 7.3, and elution by gravity flow with 125 mM imidazole in 50 mM potassium phosphate buffer pH 7.3. Buffers with imidazole were freshly prepared prior to the protein purification. Purified CsgA was passed through a 30 kDa molecular weight cut-off filter and passed through a desalting column. All steps of the CsgA purification in the absence of guanidine hydrochloride were conducted in rapid succession with as little delay as possible. The assay was conducted in 96-well black microplates with 40 μM ThioflavinT, 1% DMSO, CsgA at 20 μM, and compounds at 20 μM. Plates were incubated at 25° C. in a Tecan Nano F200 plate reader with excitation at 438 nm using a 439 nm filter with a bandwidth of 8 nm, and emission at 495 nm with a 490 nm filter with a bandwidth of 10 nm. During the assay, plates were shaken initially for 5 seconds and subsequently for 3 seconds prior to fluorescent readings. Readings were performed every 20 minutes for up to 24 hours. The effect of compounds on CsgA aggregation in the assay was determined with data from 18 hours, following the plateau of the fluorescent signal in the untreated (no compound) control wells containing CsgA. Fluorescence values for each compound with CsgA were first adjusted by subtracting the average fluorescence of the compound in the absence of CsgA. These adjusted values were normalized by dividing them by the average fluorescence in the no-compound (i.e., untreated) control wells containing CsgA […], and the average normalized fluorescence with the compound was expressed as a percentage of the average fluorescence observed in untreated controls.

[3] = molecular target: T3, human α-synuclein (Homo sapiens, UniProt P37840); test: In vitro Thioflavin T assay of α-synuclein aggregation
T3 construct: made in house; host or cells: E. coli
Protocol: In Vitro Thioflavin T Assay to Determine the Effects of Compounds on α-Synuclein Aggregation.
The ammonium sulfate pellet was washed with an equal volume of 100 mM ammonium acetate in ethanol, pelleted via centrifugation, washed twice with ethanol, dried overnight, resuspended in 10 mM Tris pH 7.4, and passed through a 50 kDa cut-off column. The assay was conducted in 96-well black microplates with a single 2 mm bead in each well, 40 μM ThioflavinT, 1% DMSO, 50 μM α-synuclein, 100 mM sodium chloride, 9.3 mM potassium phosphate pH 7.3, 4.6 mM Tris pH 7.4 (added as the solvent for α-synuclein or independently for controls lacking α-synuclein), and compounds at 1 μM or 50 μM. […] Readings were performed hourly for up to 73 hours. The effect of compounds on α-synuclein aggregation in the assay was determined with data from 40 hours, following the plateau of the fluorescent signal in the untreated (no compound) control wells containing α-synuclein. Fluorescence values for each compound with α-synuclein were first adjusted by subtracting the average fluorescence of the compound in the absence of α-synuclein.

[4] = compounds at 50 μM, 2 μM CsgA, 50 μM α-synuclein, ThT fluorescence at 40 hours, read-out: Inhibition of Aggregation CsgA-seeded αSyn
[5] = compounds at 50 μM, 2 μM CsgA, 50 μM α-synuclein, ThT fluorescence at 40 hours, read-out: Inhibition of Aggregation CsgA-seeded αSyn (compound activity range)
[6] = read-out: Inhibition of Aggregation CsgA (compound activity range), compounds at 20 μM, CsgA at 20 μM, ThT fluorescence at 18 hours
[7] = read-out: Inhibition of Aggregation CsgA, compounds at 20 μM, CsgA at 20 μM, ThT fluorescence at 18 hours
[8] = compounds at 50 μM, 50 μM α-synuclein, ThT fluorescence at 40 hours, read-out: Inhibition of Aggregation αSyn
[9] = compounds at 50 μM, 50 μM α-synuclein, ThT fluorescence at 40 hours, read-out: Inhibition of Aggregation αSyn (compound activity range)

T2 sequence (P28307 23-151): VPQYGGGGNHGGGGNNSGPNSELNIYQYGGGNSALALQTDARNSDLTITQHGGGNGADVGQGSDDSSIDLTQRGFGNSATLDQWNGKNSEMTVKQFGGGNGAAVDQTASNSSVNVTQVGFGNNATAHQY

Row | SMILES | inhibition at 50 µM [1, 4] [%] | inhibition at 50 µM [1, 5] [%] | inhibition at 20 µM [2, 6] [%] | inhibition at 20 µM [2, 7] [%] | inhibition at 50 µM [3, 8] [%] | inhibition at 50 µM [3, 9] [%] | Effect on CsgA-seeded α-synuclein aggregation (in words) ([1]; compounds at 50 μM) | Effect on CsgA aggregation (in words) ([2]; compounds at 20 μM) | Effect on α-synuclein aggregation (in words) ([3]; compounds at 50 μM) | inhibition at 50 µM ([1]; read-out: Inhibition of Aggregation CsgA-seeded αSyn) [%] | inhibition at 50 µM ([1]; read-out: Inhibition of Aggregation CsgA-seeded αSyn (compound activity range)) [%] | inhibition at 50 µM ([3]; read-out: Inhibition of Aggregation αSyn) [%] | inhibition at 50 µM ([3]; read-out: Inhibition of Aggregation αSyn (compound activity range)) [%] | Inhibition of Aggregation CsgA (compound activity range) ([2]; compounds at 20 μM, CsgA at 20 μM, ThT fluorescence at 18 hours, 20 µM)
1 | O=C(CCc1ccc(O)cc1)c1c(O)cc(O)cc1O [phloretin, 3-(4-hydroxyphenyl)-1-(2,4,6-trihydroxyphenyl)propan-1-one] | 21 | 10 to 30 | 10 to 30 | 18 | 46 | 30 to 60 | – | – | – | – | – | – | – | –
2 | COc1ccccc1O [guaiacol, 2-methoxyphenol] | 40 | 30 to 60 | -10 to 10 | -5 | -2 | -10 to 10 | demonstrated inhibition | without notable inhibition | without notable inhibition | – | – | – | – | –
3 | C=CCc1ccc(O)c(OC)c1 [eugenol, 2-methoxy-4-(prop-2-en-1-yl)phenol] | – | – | – | -10 | – | – | demonstrated inhibition | without notable inhibition | without notable inhibition | 42 | 30 to 60 | -1 | -10 to 10 | –
4 | COc1cc(O)ccc1O [methoxy-hydroquinone, 2-methoxybenzene-1,4-diol] | 80 | – | 30 to 60 | 50 | 100 | > 60 | – | – | – | – | – | – | – | (++) to (+++)
